One experiment has as its target T1, GluN1/GluN2C (Rattus norvegicus, UniProt P35439+Q00961).
T1 construct: expressed in transfected cells; host or cells: Xenopus laevis oocytes (nuclear cDNA injection)
Nature of the experiment: TEVC on Xenopus oocytes, GluN1/GluN2C diheteromers. The experiment is classed as cell-based. As to conditions: 1 µM trans-OptoNAM-3 (dark); listed as trans-OptoNAM-3. An excerpt: NMDARs exist as multiple subtypes in the brain that are formed by the combination of two GluN1 and either two identical (diheteromers) or different (triheteromers) GluN2 (GluN2A-D) subunits.[1] We assessed the selectivity of trans-OptoNAM-3 (dark PSS) for the other NMDAR subtypes.
(§1) We used cDNA coding for rat GluN1–1a (named GluN1 herein) (GenBank: U08261.1), rat GluN2A (GenBank: D13211.1), mouse GluN2B (GenBank: D10651.2), rat GluA1 flop (GenBank: M36418.2), and rat Myc-GluA2(Q)-flip (GenBank: AF164344.1) cloned into pcDNA3-based expression plasmids. GluK2 (GenBank: Z11548.1) corresponds to the fully RNA-edited version.[80] The GluN2B-ΔNTD construct is from ref[45] and GluN2B–N615K is from ref[81]. Single mutants GluN2B-Q110G and GluN1-L135H were from ref[19]. The GluA2 cDNA contains a Myc tag ([…]) fused between the signal peptide and the N-terminus sequences, and the GluA2 subunit is […] for its Q/R/N site (GluA2(Q)) to allow permeation of homomeric GluA2 receptors.[2] cDNAs coding for rat GluN2C (GenBank: M91563.1) and GluN2D subunits (GenBank: L31611.1) were in prK5 plasmids.
Expression of recombinant NMDA receptors was obtained by oocyte nuclear coinjection of 37 nL of a mixture of cDNAs (at 30 ng/μL) coding for GluN1–1a and various GluN2 subunits (ratio 1:1). The protocol in ref[43] was followed for the expression of GluN1/GluN2A/GluN2B triheteromers. […]

The next experiment addresses T2, GluN1/GluN2B-Q110G (UniProt P35439+Q01097, Q110G).
T2 construct: expressed in transfected cells; host or cells: Xenopus laevis oocytes (nuclear cDNA injection)
Kind of experiment: TEVC on Xenopus oocytes, EVT-101 site mutant. Format: cell-based, rat GluN1, mouse GluN2B. As to conditions: 1 µM trans-OptoNAM-3 (dark).
Excerpt: We finally investigated the location of the OptoNAM-3 binding-site on the receptor. […] The binding site for GluN2B-selective antagonists at the GluN1/GluN2B NTD dimer interface contains two partially overlapping pockets that accommodate GluN2B-selective NAMs of distinct chemical scaffolds:[19] either scaffolds related to ifenprodil or scaffolds related to another GluN2B-selective NAM called EVT-101.[47]
as §1, with “prK5 plasmids. […]” for “prK5 plasmids.”

T2 sequence (Q01097 27-1482 Q110G, other chains not shown): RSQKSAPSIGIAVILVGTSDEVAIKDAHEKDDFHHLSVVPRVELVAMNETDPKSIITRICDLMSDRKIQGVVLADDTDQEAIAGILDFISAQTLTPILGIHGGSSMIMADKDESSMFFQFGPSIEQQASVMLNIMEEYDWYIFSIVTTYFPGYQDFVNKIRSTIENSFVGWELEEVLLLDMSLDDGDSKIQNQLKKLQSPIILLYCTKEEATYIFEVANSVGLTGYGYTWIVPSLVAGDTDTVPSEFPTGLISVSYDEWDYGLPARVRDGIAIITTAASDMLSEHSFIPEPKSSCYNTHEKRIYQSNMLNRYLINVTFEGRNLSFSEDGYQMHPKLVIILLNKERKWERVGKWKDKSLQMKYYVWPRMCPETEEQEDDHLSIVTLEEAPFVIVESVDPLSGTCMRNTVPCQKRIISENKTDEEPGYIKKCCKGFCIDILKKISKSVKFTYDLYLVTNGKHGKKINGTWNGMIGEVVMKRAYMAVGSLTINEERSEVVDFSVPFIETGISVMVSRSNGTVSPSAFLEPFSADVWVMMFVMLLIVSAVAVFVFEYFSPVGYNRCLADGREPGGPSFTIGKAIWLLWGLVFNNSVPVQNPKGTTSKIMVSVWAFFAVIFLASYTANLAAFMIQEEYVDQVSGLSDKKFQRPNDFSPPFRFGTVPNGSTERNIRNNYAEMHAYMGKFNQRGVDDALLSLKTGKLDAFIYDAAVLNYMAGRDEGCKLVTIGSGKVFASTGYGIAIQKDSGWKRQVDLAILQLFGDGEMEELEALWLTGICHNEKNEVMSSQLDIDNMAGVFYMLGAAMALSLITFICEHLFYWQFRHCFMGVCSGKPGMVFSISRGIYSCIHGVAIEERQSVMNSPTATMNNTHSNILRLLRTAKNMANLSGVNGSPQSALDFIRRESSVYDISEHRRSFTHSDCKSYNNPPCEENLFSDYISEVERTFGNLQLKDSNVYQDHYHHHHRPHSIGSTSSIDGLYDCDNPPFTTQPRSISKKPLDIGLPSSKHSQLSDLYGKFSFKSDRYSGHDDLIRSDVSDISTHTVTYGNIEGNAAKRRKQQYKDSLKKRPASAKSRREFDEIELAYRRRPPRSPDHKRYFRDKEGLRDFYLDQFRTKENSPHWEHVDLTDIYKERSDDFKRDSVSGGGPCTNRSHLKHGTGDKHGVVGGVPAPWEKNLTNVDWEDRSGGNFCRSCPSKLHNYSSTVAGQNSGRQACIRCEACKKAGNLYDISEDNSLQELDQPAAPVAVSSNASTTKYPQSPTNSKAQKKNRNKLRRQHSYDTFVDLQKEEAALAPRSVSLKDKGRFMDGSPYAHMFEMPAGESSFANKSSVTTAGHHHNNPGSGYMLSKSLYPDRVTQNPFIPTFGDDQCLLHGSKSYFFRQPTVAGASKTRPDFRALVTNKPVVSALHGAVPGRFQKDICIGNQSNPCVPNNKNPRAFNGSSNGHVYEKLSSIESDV
T1 sequence (Q00961 20-1237, other chains not shown): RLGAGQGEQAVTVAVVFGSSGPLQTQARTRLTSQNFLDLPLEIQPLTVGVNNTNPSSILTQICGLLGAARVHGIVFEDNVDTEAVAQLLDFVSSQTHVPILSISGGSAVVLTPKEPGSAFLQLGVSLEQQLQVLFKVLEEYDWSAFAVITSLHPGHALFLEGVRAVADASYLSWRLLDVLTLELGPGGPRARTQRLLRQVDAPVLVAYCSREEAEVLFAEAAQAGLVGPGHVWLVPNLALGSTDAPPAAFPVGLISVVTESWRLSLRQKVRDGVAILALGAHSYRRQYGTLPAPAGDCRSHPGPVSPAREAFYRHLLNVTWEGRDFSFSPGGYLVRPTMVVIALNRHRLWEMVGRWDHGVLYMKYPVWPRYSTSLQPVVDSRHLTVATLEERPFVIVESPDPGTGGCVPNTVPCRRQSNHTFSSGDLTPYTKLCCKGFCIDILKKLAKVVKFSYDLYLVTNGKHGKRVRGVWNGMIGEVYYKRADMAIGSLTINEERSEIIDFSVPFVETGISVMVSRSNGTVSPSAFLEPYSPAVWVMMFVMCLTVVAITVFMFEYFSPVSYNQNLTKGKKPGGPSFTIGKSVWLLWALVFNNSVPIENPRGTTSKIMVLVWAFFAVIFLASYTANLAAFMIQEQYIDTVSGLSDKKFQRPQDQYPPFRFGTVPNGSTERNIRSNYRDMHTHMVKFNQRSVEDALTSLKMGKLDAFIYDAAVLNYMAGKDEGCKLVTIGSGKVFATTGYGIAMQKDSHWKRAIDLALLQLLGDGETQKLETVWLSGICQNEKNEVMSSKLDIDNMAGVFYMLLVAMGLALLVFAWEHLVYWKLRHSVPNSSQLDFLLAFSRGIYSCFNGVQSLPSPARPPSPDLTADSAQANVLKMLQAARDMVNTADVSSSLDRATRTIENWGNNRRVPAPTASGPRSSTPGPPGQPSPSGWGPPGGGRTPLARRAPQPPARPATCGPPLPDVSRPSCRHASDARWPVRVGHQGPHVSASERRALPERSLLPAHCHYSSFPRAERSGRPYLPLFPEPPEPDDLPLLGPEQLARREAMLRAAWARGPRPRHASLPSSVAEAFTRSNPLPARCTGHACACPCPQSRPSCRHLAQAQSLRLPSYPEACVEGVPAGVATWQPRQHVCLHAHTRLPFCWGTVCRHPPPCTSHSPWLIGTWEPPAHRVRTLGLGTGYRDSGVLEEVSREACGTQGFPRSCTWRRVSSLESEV

Regarding `c1ccc(/N=N/c2ccc(CCNc3ccncc3)cc2)cc1` [OptoNAM-3, (E)-N-(4-(Phenyldiazenyl)phenethyl)pyridin-4-amine], at GluN1/GluN2C, the “inhibition of GluN1/GluN2C” value is 3.2% ± 0.5%. The “inhibition of GluN1/GluN2B-Q110G” value against GluN1/GluN2B-Q110G was 65.503%.

For the origin of these results see article PMC11413854, “Reversible Control of Native GluN2B-Containing NMDA Receptors with Visible Light” (ACS Chemical Neuroscience, 2024).
